# Measured values reported in patent US5753648A, “Tricyclic benzazepine vasopressin antagonists” (American Cyanamid Company, priority 1996, dated 1998).
# Where two headings read alike, the source gives them in different places.
# What was measured:
# [1] = target: T1, Human V2 Vasopressin Receptor (Homo sapiens, UniProt P30518); test: Binding to Membranes of Mouse Fibroblast Cell Line (LV-2) Transfected with the cDNA Expressing the Human V2 Vasopressin Receptor
# T1 construct: expressed in transfected cells; host or cells: mouse fibroblast cell line LV-2
# Protocol: Binding to Membranes of Mouse Fibroblast Cell Line (LV-2) Transfected with the cDNA Expressing the Human V2 Vasopressin Receptor Membrane Preparation
# Flasks of 175 ml capacity, containing attached cells grown to confluence, are cleared of culture medium by aspiration. The flasks containing the attached cells are rinsed with 2×5 ml of phosphate buffered saline (PBS) and the liquid aspirated off each time. Finally, 5 ml of an enzyme free dissociation Hank's based solution (Specialty Media, Inc., Lafayette, N.J.) is added and the flasks are left undisturbed for 2 min. The content of all flasks is poured into a centrifuge tube and the cells pelleted at 300×g for 15 min. The Hank's based solution is aspirated off and the cells homogenized with a polytron at setting #6 for 10 sec in 10.0 mM Tris.HCl buffer, pH 7.4 containing 0.25M sucrose and 1.0 mM EDTA. The homogenate is centrifuged at 1500×g for 10 min to remove ghost membranes. The supernatant fluid is centrifuged at 100,000×g for 60 min to pellet the receptor protein. Upon completion, the pellet is resuspended in a small volume of 50.0 mM Tris.HCl buffer, pH 7.4. The protein content is determined by the Lowry method and the receptor membranes are suspended in 50.0 mM Tris.HCl buffer containing 0.1 mM phenylmethylsulfonylfluoride (PMSF) and 0.2% bovine serum albumin (BSA) to give 2.5 mg receptor protein per ml of suspension.
# (§1) For binding experiments, the following is added in μl volume to wells of a 96 well format of a microtiter plate: 100.0 μl of 100.0 mM Tris.HCl buffer containing 0.2% heat inactivated BSA, 10.0 mM MgCl2 and a mixture of protease inhibitors: leupeptin, 1.0 mg %; aprotinin, 1.0 mg %; 1,10-phenanthroline, 2.0 mg %; trypsin inhibitor, 10.0 mg % and 0.1 mM PMSF, 20.0 μl of [^3 H] Arginine^8, vasopressin (S.A. 75.0 Ci/mmole) at 0.8 nM and the reaction initiated by the addition of 80.0 μl of tissue membranes (200.0 μg tissue protein). The plates are left undisturbed on the bench top for 120 min to reach equilibrium. Non specific binding is assessed in the presence of 1.0 μm of unlabeled ligand, added in 20 μl volume. For test compounds, these are solubilized in 50% dimethylsulfoxide (DMSO) and added in 20.0 μl volume to a final incubation volume of 200 μl. Upon completion of binding, the content of each well is filtered off, using a Brandel® cell Harvester (Gaithersburg, Md.). The radioactivity trapped on the filter disk by the ligand-receptor complex is assessed by liquid scintillation counting in a Packard LS Counter, with an efficiency of 65% for tritium. The data are analyzed for IC50 values by the LUNDON-2 program for competition (LUNDON SOFTWARE, Ohio).
# [2] = target: T2, Rat Kidney Medullary V2 Receptors (Rattus norvegicus, UniProt Q00788); test: biochemical; format: binding
# T2 construct: Medullary tissues from rat kidneys are dissected out; from tissue; host or cells: rat kidney medulla membranes
# Protocol: Binding Assay to Rat Kidney Medullary V2 Receptors
# Medullary tissues from rat kidneys are dissected out, cut into small pieces and soaked in a […] sodium chloride solution containing 1.0 mM EDTA with many changes of the liquid phase, until the solution is clear of blood. The tissue is homogenized in a 0.25M sucrose solution containing 1.0 mM EDTA and 0.1 mM PMSF using a Potter-Elvehjem homogenizer with a teflon pestle. The homogenate is filtered through several layers (4 layers) of cheese cloth. The filtrate is rehomogenized using a dounce homogenizer, with a tight fitting pestle. The final homogenate is centrifuged at 1500×g for 15 min. The nuclear pellet is discarded and the supernatant fluid recentrifuged at 40,000×g for 30 min. The resulting pellet formed contains a dark inner part with the exterior, slightly pink. The pink outer part is suspended in a small amount of 50.0 mM Tris.HCl buffer, pH 7.4. The protein content is determined by the Lowry's method (Lowry et al, J. Biol. Chem., 1953). The membrane suspension is stored at -70° C., in 50.0 mM Tris.HCl, containing 0.2% inactivated BSA and 0.1 mM PMSF in aliquots of 1.0 ml containing 10.0 mg protein per ml of suspension until use in subsequent binding experiments.
# as §1, with “min.” for “min”, “Non-specific” for “Non specific”, “μM” for “μm”
# [3] = target: Rat Hepatic V1 Receptors (Rattus norvegicus, UniProt P30560); test: Binding Assay to Rat Hepatic V1 Receptors
# Protocol: Binding Assay to Rat Hepatic V1 Receptors
# Rat liver plasma membranes expressing the vasopressin V1 receptor subtypes are isolated by sucrose density gradient according to the method described by Lesko et al, (1973). These membranes are quickly suspended in 50.0 mM Tris.HCl buffer, pH 7.4, containing 0.2% bovine serum albumin (BSA) and 0.1 mM phenylmethylsulfonylfluoride (PMSF) and kept frozen at -70° C. until used in subsequent binding experiments. For binding experiments, the following is added to the wells of a ninety-six well format microtiter plate: 100 μl of 100.0 mM Tris.HCl buffer containing 10.0 mM MgCl2, 0.2% heat inactivated BSA and a mixture of protease inhibitors: leupeptin, 1.0 mg %; aprotinin, 1.0 mg %; 1,10-phenanthroline,2.0 mg %; trypsin inhibitor, 10.0 mg % and 0.1 mM PMSF, 20.0 μl of [phenylalanyl-3,4,5,-^3 H] vaso-pressin (S.A. 45.1 Ci/mmole) at 0.8 nM, and the reaction initiated by the addition of 80 μl of tissue membranes containing 20 μg of tissue protein. The plates are kept undisturbed on the bench top at room temperature for 120 min. to reach equilibrium. Non-specific samples are assayed in the presence of 0.1 μm of the unlabeled antagonist phenylalanylvasopressin, added in 20.0 μl volume. For test compounds, these are solubilized in 50% dimethylsulfoxide (DMSO) and added in 20.0 μl volume to a final incubation volume of 200 μl. Upon completion of binding, the content of each well is filtered off, using a Brandel® cell Harvester (Gaithersburg, Md.). The radioactivity trapped on the filter disk by the ligand-receptor complex is assessed by liquid scintillation counting in a Packard LS Counter, with an efficiency of 65% for tritium. The data are analyzed for IC50 values by the LUNDON-2 program for competition (LUNDON SOFTWARE, Ohio).
# [4] = target: T3, oxytocin receptors (Rattus norvegicus, UniProt P70536); test: Oxytocin Receptor Binding; settings: for IC50: rat uterine membranes, [3H]oxytocin
# T3 sequence (P70536 1-388): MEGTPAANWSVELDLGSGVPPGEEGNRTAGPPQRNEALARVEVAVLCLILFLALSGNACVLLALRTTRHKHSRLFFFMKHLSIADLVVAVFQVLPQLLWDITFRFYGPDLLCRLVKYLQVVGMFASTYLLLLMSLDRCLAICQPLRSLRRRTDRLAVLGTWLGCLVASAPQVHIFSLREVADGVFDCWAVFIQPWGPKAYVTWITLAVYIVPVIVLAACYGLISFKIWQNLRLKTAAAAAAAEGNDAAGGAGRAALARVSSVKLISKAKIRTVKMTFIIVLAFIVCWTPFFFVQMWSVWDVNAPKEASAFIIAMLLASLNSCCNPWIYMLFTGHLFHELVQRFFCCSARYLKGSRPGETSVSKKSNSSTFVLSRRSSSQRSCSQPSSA
# Protocol: Female Sprague-Dawley rats weighing approximately 200-250 g are injected intramuscularly (i.m.) with 0.3 mg/kg of body weight of diethylstilbestrol (DES). The rats are sacrificed 18 hours later under pentobarbital anesthesia. The uteri are dissected out, cleaned of fat and connective tissues and rinsed in 50 ml of normal saline. The tissue pooled from six rats is homogenized in 50 ml of 0.01 mM Tris.HCl, containing 0.5 mM dithiothreitol and 1.0 mM EDTA, adjusted to pH 7.4, using a polytron at setting 6 with three passes of 10 sec each. The homogenate is passed through two (2) layers of cheesecloth and the filtrate centrifuged at 1000×g for 10 min. The clear supernatant is removed and recentrifuged at 165,000×g for 30 min. The resulting pellet containing the oxytocin receptors is resuspended in 50.0 mM Tris.HCl containing 5.0 mM MgCl2 at pH 7.4, to give a protein concentration of 2.5 mg/ml of tissue suspension. This preparation is used in subsequent binding assays with [^3 H]Oxytocin.
# Binding of 3,5-[^3 H]Oxytocin ([^3 H]OT) to its receptors is done in microtiter plates using [^3 H]OT, at various concentrations, in an assay buffer of 50.0 mM Tris.HCl, pH 7.4 and containing 5.0 mM MgCl2, and a mixture of protease inhibitors: BSA, 0.1 mg; aprotinin, 1.0 mg; 1,10-phenanthroline, 2.0 mg; trypsin, 10.0 mg; and PMSF, 0.3 mg per 100 ml of buffer solution. Non-specific binding is determined in the presence of 1.0 uM unlabeled OT. The binding reaction is terminated after 60 min., at 220° C., by rapid filtration through glass fiber filters using a Brandel® cell harvester (Bio-medical Research and Development Laboratories, Inc., Gaithersburg, Md.). Competition experiments are conducted at equilibrium using 1.0 nM [^3 H]OT and varying the concentration of the displacing agents. The concentrations of agent displacing 50% of [^3 H]OT at its sites (IC50) are calculated by a computer assisted LUNDON-2 program (LUNDON SOFTWARE INC., Ohio, USA).
# [5] = tested on: Endogenous Arginine Vasopressin Antidiuretic (V2) Response in Conscious Rats; test: Antagonism of Endogenous Arginine Vasopressin Antidiuretic (V2) Response in Conscious Rats (urine volume); format: in vivo, rat (Sprague-Dawley); settings: 10 mg/kg rat p.o.; 4 hour collection
# Text: Effects on the Antagonism of Endogenous Arginine Vasopressin Antidiuretic (V2) Response in Conscious Rats with Free Access to Water Drinking Before but not During the Experiment:
# Male or female normotensive Sprague-Dawley rats (Charles River Laboratories, Inc., Kingston, N.Y.) of 400-450 g body weight were supplied with Laboratory Rodent Feed #5001 (PMI Feeds, Inc., Richmond, Id.) and water ad libitum. On the day of test, rats were placed individually into metabolic cages equipped with stainless steel screens (to separate the feces from the urine) and funnels for collection of urine. Vehicle or reference agent was given at various oral doses. During the test, rats were not provided with water or food. Urine was collected for four hours after dosing of the test compound. At the end of four hours, urine volume was measured. Urinary osmolality was determined using a Fiske One-Ten Osmometer (Fiske Associates, Norwood, Mass. 02062) or an Advanced CRYOMATIC Osmometer, Model 3C2 (Advanced Instruments, Norwood, Mass.). Determinations of Na^+, K^+ and Cl^- ion were carried out using ion specific electrodes in a Beckman SYNCHRON EL-ISE Electrolyte System analyzer. In the following results, increased urine volume and decreased osmolality relative to AVP-control indicates activity.
# T2 sequence (Q00788 whole entry): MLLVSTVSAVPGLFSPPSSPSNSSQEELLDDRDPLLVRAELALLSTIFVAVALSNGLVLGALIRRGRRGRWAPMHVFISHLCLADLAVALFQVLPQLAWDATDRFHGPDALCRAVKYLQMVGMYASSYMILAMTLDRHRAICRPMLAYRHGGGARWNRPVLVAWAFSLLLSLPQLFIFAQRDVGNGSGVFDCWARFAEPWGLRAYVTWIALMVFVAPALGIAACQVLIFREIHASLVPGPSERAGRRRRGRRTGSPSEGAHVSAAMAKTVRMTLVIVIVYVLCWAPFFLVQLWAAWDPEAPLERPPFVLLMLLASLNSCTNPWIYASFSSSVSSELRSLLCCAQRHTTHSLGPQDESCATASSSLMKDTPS
# Chain of Rat Hepatic V1 Receptors (P30560 whole entry): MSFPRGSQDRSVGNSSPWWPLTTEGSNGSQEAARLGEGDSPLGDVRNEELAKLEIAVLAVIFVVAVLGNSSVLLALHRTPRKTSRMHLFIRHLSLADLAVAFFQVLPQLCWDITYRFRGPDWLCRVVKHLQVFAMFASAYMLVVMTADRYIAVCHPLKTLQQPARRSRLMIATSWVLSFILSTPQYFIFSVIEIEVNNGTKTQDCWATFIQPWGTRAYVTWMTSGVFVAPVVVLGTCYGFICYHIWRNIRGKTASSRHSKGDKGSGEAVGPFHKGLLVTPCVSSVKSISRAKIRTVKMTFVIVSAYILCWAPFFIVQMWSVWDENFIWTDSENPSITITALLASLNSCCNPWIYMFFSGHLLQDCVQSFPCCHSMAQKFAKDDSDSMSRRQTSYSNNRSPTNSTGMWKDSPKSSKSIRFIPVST
# T1 sequence (P30518 whole entry): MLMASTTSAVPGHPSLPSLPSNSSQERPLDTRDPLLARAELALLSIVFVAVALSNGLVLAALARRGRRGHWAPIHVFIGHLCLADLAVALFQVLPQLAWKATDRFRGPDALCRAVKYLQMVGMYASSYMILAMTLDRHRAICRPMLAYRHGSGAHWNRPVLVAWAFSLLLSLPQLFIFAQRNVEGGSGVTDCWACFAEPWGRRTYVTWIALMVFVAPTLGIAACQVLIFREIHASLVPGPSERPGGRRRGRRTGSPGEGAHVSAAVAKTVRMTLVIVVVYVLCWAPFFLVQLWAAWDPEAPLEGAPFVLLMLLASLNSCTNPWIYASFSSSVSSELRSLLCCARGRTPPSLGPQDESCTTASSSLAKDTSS
Structure (SMILES),IC50 [2] [nM],IC50 [3] [nM],IC50 [4] [nM],inhibition at 10 µM [4] [%],Urine Volume [5] [ml/4 hrs],also measured
O=C(Nc1ccc(C(=O)N2Cc3cccn3Cc3ccccc32)cn1)c1ccc(F)cc1Cl [Example 9],1.1,6,170,,,"IC50 ([1]; ** LV-2 cells transfected with human V2 receptor cDNA, read-out: V2 IC50 (**human V2 receptor)): 0.9 nM; inhibition at 2.5 µM ([4]; dose 2.5 μM): 96%"
"CC(C)(Oc1ccc(Cl)cc1)C(=O)Nc1ccc(C(=O)N2Cc3cccn3Cc3ccccc32)cc1 [Example 347, N-[4-(5H-Pyrrolo[2,1-c][1,4]benzodiazepin-10(11H)-ylcarbonyl)phenyl]-2-methyl-2-(4-chlorophenyloxy)propionamide]",420,180,,86,,
CN(C)Cc1ccc2n1Cc1ccccc1N(C(=O)c1ccc(NC(=O)c3ccccc3-c3ccccc3)cc1O)C2 [Example 372],,,,,30.3,"IC50 ([1]; LV-2 cells transfected with human V2 receptor cDNA, Table 5, read-out: Vasopressin Binding Human V2 Receptor): 15.9 nM"
"O=C(Nc1ccc(C(=O)N2Cc3ccc(CN4CCC(N5CCCCC5)CC4)n3Cc3ccccc32)c(Cl)c1)c1ccccc1-c1ccccc1 [Example 373, [4-(3-[1,4]Bipiperidinyl-1'-ylmethyl-5H,11H-pyrrolo[2,1-c][1,4]benzodiazepine-10-carbonyl)-3-chloro-phenyl]-biphenyl-2-carboxylic acid amide]",,,,,15.6,
"O=C(Nc1ccc(C(=O)N2Cc3ccc(CNC(CO)(CO)CO)n3Cc3ccccc32)c(Cl)c1)c1ccccc1-c1ccccc1 [Example 374, (3-Chloro-4-{3-[(2-hydroxy-1,1-bis-hydroxymethylethylamino)-methyl]-5H,11H-pyrrolo[2,1-c][1,4]benzodiazepine-10-carbonyl}-phenyl)-biphenyl-2-carboxylic acid amide]",,,,,16.5,
CN(C)CCN(C)Cc1ccc2n1Cc1ccccc1N(C(=O)c1ccc(NC(=O)c3ccccc3-c3ccccc3)cc1Cl)C2 [Example 375],,,,,44.2,
"CN(C)C1CCN(Cc2ccc3n2Cc2ccccc2N(C(=O)c2ccc(NC(=O)c4ccccc4-c4ccccc4)cc2Cl)C3)CC1 [Example 376, {3-chloro-4-[3-(4-dimethylamino-piperidine-1-ylmethyl)-5H,11H-pyrrolo[2,1-c][1,4]benzodiazepine-10-carbonyl]-phenyl}-biphenyl-2-carboxylic acid amide]",,,,,23.8,

# Second part, led by results:
IC50 [2] [nM],IC50 [3] [nM],IC50 [4] [nM],inhibition at 10 µM [4] [%],Structure (SMILES),Urine Volume [5] [ml/4 hrs],also measured
,80,710,95,CC(C)(C)Nc1ccc(C(=O)N2Cc3cccn3Cc3ccccc32)cn1 [Example 348],,inhibition at 1 µM ([2]; at 1 μM): 43%
34,15,205,95,"O=C(c1ccc(NC2CCc3ccccc32)nc1)N1Cc2cccn2Cc2ccccc21 (centres unmarked) [Example 350, 10-[[6-(1-Indanylamino)-3-pyridinyl)carbonyl]-10,11-dihydro-5H-pyrrolo[2,1-c][1,4]benzodiazepine]",,
59,88,105,,O=C(c1ccc(NCc2ccccc2Br)nc1)N1Cc2cccn2Cc2ccccc21 [Example 352],,inhibition at 1.25 µM ([4]; dose 1.25 μM): 96%
